Question: With `CC(=O)Nc1ccc(/C=N/NC(N)=S)cc1` as the compound, how does the solubility (mole fraction) (in n-hexane, 288.15 K) read?
Answer: The solubility (mole fraction) was 5.55e-06.

Question: And the solubility (mole fraction) (in n-hexane, 293.15 K)?
Answer: The solubility (mole fraction) was 7.25e-06.

Question: What about the solubility (mole fraction) (in n-hexane, 298.15 K) of the same compound?
Answer: The solubility (mole fraction) was 1.03e-05.

Question: And the solubility (mole fraction) (in n-hexane, 303.15 K)?
Answer: Its solubility (mole fraction) is 1.34e-05.

Question: What about the solubility (mole fraction) (in n-hexane, 308.15 K) of the same compound?
Answer: The solubility (mole fraction) was 1.75e-05.

Question: And the solubility (mole fraction) (in n-hexane, 313.15 K)?
Answer: Its solubility (mole fraction) is 2.21e-05.

Question: What about the solubility (mole fraction) (in n-hexane, 318.15 K) of the same compound?
Answer: Its solubility (mole fraction) is 2.93e-05.

Question: What about the solubility (mole fraction) (in n-octanol, 288.15 K) of the same compound?
Answer: Its solubility (mole fraction) is 0.00038.

Question: And the solubility (mole fraction) (in n-octanol, 293.15 K)?
Answer: The solubility (mole fraction) was 0.000439.

Question: What about the solubility (mole fraction) (in n-octanol, 298.15 K) of the same compound?
Answer: Its solubility (mole fraction) is 0.000503.

Question: What about the solubility (mole fraction) (in n-octanol, 303.15 K) of the same compound?
Answer: Its solubility (mole fraction) is 0.00058.

Question: And the solubility (mole fraction) (in n-octanol, 308.15 K)?
Answer: The solubility (mole fraction) was 0.000673.

Question: And the solubility (mole fraction) (in n-octanol, 313.15 K)?
Answer: Its solubility (mole fraction) is 0.000762.

Question: What about the solubility (mole fraction) (in n-octanol, 318.15 K) of the same compound?
Answer: The solubility (mole fraction) was 0.000863.

Source: BigSolDB 2.1
